Laboratory results as given in patent US20260242330A1, “USE OF AN AMANTADINE MONONITRATE COMPOUND IN MANUFACTURE OF A MEDICAMENT FOR THE PREVENTION AND TREATMENT OF HYPERTENSION” (GUANGZHOU MAGPIE PHARMACEUTICALS CO., LTD., priority 2022, published 2026).

Test system: blood pressure of subjects
Test: Effect of multiple administrations of MN-08 on blood pressure of subjects (7 days)
Format: in vivo, human
Conditions: for DP / SP: Subject 14; for DP: baseline 84 mmHg; for SP: baseline 122 mmHg
Text: All subjects in the following embodiments have signed informed consent forms, which comply with medical ethics regulations. According to the relevant provisions of Chinese Guidelines for the Prevention and Treatment of Hypertension (2018 Revision), the values measured for hypertension are the average blood pressure measured three times on a different day without the use of antihypertensive drugs. Therefore, in this embodiment, the baseline blood pressure of the subjects before administration is set as the average blood pressure measured at three different times: screening period, occupancy period, and 1 hour before administration, as shown in Tables 1 to 3.
Multiple dosing trials: Participants in each dose group fasted for at least 10 hours before administration, without water deprivation overnight. Each group of subjects received oral administration of the test drug on an empty stomach from day 1 to day 6, twice a day (with an interval of 12 hours and at least 1 hour on an empty stomach before the second administration), and only once in the morning on day 7. A total of 13 doses were administered. The first administration time every day is around 8 am, taken with 240 mL of water. Taking subject 14 as an example, the effect of multiple doses of MN-08 (7 days) on subject blood pressure was investigated.

[1] = 12 mg twice a day, D 1, 2 hrs after 2nd adm.
[2] = 12 mg twice a day, D 1, 4 hrs after 1st adm.
[3] = 12 mg twice a day, D 1, 8 hrs after 1st adm.
[4] = 12 mg twice a day, D 2, 2 hrs after 2nd adm.
[5] = 12 mg twice a day, D 2, 4 hrs after 1st adm.
[6] = 12 mg twice a day, D 2, 8 hrs after 1st adm.
[7] = 12 mg twice a day, D 3, 2 hrs after 2nd adm.
[8] = 12 mg twice a day, D 3, 4 hrs after 1st adm.
[9] = 12 mg twice a day, D 3, 8 hrs after 1st adm.
[10] = 12 mg twice a day, D 4, 2 hrs after 2nd adm.
[11] = 12 mg twice a day, D 4, 4 hrs after 1st adm.
[12] = 12 mg twice a day, D 4, 8 hrs after 1st adm.
[13] = 12 mg twice a day, D 5, 2 hrs after 2nd adm.
[14] = 12 mg twice a day, D 5, 4 hrs after 1st adm.
[15] = 12 mg twice a day, D 5, 8 hrs after 1st adm.
[16] = 12 mg twice a day, D 6, 2 hrs after 2nd adm.
[17] = 12 mg twice a day, D 6, 4 hrs after 1st adm.
[18] = 12 mg twice a day, D 6, 8 hrs after 1st adm.
[19] = 12 mg, once on D 7 after 6 days twice a day, D 7, 4 hrs after adm.
[20] = 12 mg, once on D 7 after 6 days twice a day, D 7, 8 hrs after adm.
[21] = 12 mg, once on D 7 after 6 days twice a day, D 7, 12 hrs after adm.

With `CCC12CC3CC(N)(C1)CC(CO[N+](=O)[O-])(C3)C2` (stereo not shown) [MN-08] the DP [1] was 73 mmHg, the SP [1] was 113 mmHg and the DP [2] was 81 mmHg. The SP [2] was 122 mmHg, the DP [3] was 74 mmHg and the SP [3] was 114 mmHg. For the same compound, the DP [4] was 77 mmHg, the SP [4] was 107 mmHg and the DP [5] was 76 mmHg. The SP [5] was 115 mmHg, the DP [6] was 68 mmHg and the SP [6] was 117 mmHg. The DP [7] was 73 mmHg, the SP [7] was 109 mmHg and the DP [8] was 74 mmHg. It also gave an SP [8] of 114 mmHg, a DP [9] of 82 mmHg and an SP [9] of 111 mmHg. For the same compound, the DP [10] was 73 mmHg, the SP [10] was 109 mmHg and the DP [11] was 73 mmHg. For the same compound, the SP [11] was 109 mmHg, the DP [12] was 70 mmHg and the SP [12] was 107 mmHg. It also gave a DP [13] of 74 mmHg, an SP [13] of 114 mmHg and a DP [14] of 69 mmHg. For the same compound, the SP [14] was 106 mmHg, the DP [15] was 62 mmHg and the SP [15] was 97 mmHg. It also gave a DP [16] of 77 mmHg, an SP [16] of 125 mmHg and a DP [17] of 77 mmHg. It also gave an SP [17] of 118 mmHg, a DP [18] of 63 mmHg and an SP [18] of 112 mmHg. It also gave a DP [19] of 77 mmHg, an SP [19] of 108 mmHg and a DP [20] of 62 mmHg. It also gave an SP [20] of 102 mmHg, a DP [21] of 62 mmHg and an SP [21] of 103 mmHg. For the same compound, the “both systolic and diastolic pressure of the subjects” value (twice a day for 7 days, decrease in diastolic greater than in systolic pressure) was “reduced”.
